Measured values as given in patent US20130109682A1, “CYCLIC ETHER COMPOUNDS USEFUL AS KINASE INHIBITORS” (NOVARTIS AG, priority 2010, published 2013).

Columns and labels:
PIM1 = PIM1 (Homo sapiens, UniProt P11309); test: KinaseGlo Pim1 ATP depletion assay; type: biochemical
Summary of the method: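 2.5 nM PIM1 preincubated 15 min with compound and 40 μM BAD peptide in 50 mM HEPES pH 7.5, 5 mM MgCl2, 1 mM DTT, 0.05% BSA, 2.5% DMSO. The reaction was started with 20 μM ATP (final) and run to about 50% ATP depletion. Remaining ATP read by KinaseGlo Plus luminescence to give IC50.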

PIM3 = PIM3 (Homo sapiens, UniProt Q86V86); test: KinaseGlo Pim3 ATP depletion assay; type: biochemical
Summary of the method: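 Kinase was preincubated 15 min with BAD peptide in HEPES pH 7.5/MgCl2/DTT/BSA before ATP was added. Final concentrations were 40 μM ATP, 100 μM BAD peptide and 2.5% DMSO, with 5 nM enzyme. The reaction ran to ~50% ATP depletion and remaining ATP was read by KinaseGlo Plus luminescence.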

GSK3β = GSK3β (Homo sapiens, UniProt P49841); test: GSK3β ATP depletion assay; type: biochemical; conditions: read-out: GSK3b IC50
Summary of the method: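 Human GSK3β (5 nM) preincubated 15 min with 10 μM biotinylated phospho-CREB peptide in pH 7.5 Tris buffer (15 mM MgCl2, 1 mM DTT, 0.1% BSA, 2.5% DMSO). Reaction started with 2 μM ATP and run to about 50% ATP depletion. Remaining ATP measured by KinaseGlo luminescence.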

[1] = system: KMS11 (human myeloma cell line); test: Cell proliferation assay (CellTiter-Glo), KMS11; type: cell-based; conditions: Homo sapiens, KMS-11; KMS11-Luc cells
Summary of the method: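 KMS11 cells in IMDM with 10% FBS and sodium pyruvate, seeded at 2000 cells/well on assay day. Compound added at 2× to equal volume of cells, incubated 3 days at 37° C. Viability read by CellTiter-Glo luminescence; EC50 derived.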

PIM2 = PIM2 (Homo sapiens, UniProt Q9P1W9); test: KinaseGlo Pim2 ATP depletion assay; type: biochemical
Summary of the method: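 Luminescent ATP-depletion read-out of PIM2 phosphorylating BAD peptide (RSRHSSYPAGT-OH). Final conditions: 5 nM PIM2, 4 μM ATP, 10 μM peptide, 2.5% DMSO in 50 mM HEPES pH 7.5, 5 mM MgCl2, 1 mM DTT, 0.05% BSA. Enzyme–peptide preincubated 15 min with compound; reaction run to ~50% ATP depletion.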

Sequence of PIM1 (P11309 whole entry): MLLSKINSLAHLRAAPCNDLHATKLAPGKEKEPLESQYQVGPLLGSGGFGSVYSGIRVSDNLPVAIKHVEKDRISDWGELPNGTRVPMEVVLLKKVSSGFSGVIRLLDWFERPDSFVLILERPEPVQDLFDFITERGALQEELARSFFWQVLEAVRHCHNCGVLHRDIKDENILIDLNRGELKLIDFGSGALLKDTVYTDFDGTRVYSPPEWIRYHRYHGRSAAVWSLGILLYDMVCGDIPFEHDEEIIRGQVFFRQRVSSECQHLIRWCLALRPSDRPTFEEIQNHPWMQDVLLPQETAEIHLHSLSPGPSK
Sequence of GSK3β (P49841 whole entry, species assumed): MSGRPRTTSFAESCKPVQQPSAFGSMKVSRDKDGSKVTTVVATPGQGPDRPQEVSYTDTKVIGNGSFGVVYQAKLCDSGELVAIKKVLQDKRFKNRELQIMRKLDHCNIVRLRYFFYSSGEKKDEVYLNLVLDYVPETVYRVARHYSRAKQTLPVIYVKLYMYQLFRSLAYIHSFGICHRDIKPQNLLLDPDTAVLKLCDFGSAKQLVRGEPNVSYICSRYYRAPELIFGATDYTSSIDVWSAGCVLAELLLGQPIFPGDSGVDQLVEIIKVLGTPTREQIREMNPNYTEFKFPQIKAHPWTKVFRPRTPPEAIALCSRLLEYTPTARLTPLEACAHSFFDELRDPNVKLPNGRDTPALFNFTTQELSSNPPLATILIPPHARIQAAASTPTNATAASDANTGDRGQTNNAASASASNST
Sequence of PIM2 (Q9P1W9 whole entry): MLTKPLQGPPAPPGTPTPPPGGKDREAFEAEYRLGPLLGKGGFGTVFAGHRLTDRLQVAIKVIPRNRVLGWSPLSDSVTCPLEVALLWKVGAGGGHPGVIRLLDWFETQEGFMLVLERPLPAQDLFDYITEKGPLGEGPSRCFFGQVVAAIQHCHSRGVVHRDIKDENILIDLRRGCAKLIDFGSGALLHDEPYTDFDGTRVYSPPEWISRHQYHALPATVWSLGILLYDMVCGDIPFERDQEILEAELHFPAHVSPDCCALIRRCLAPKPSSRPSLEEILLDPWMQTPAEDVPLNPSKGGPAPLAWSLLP

Row | Compound | IC50 (PIM1) [nM] | IC50 (PIM3) [nM] | IC50 (GSK3β) [nM] | EC50 [1] [nM] | IC50 (PIM2) [nM]
1 | O=C(Nc1cnccc1C1=C[C@@H](O)[C@H](O)[C@@H](CCl)O1)c1ccc(F)c(-c2c(F)cccc2F)n1 [Example 31, N-(4-((2S,3S,4R)-2-(chloromethyl)-3,4-dihydroxy-3,4-dihydro-2H-pyran-6-yl)pyridin-3-yl)-6-(2,6-difluorophenyl)-5-fluoropicolinamide] | 1 | 1 | 117 | 1900 | 1
2 | C[C@H]1O[C@@H](c2ccncc2NC(=O)c2nc(-c3c(F)cccc3F)c(F)cc2N)C[C@@H](O)[C@]1(C)O [Example 33, 3-amino-6-(2,6-difluorophenyl)-N-(4-((2R,4R,5S,6R)-4,5-dihydroxy-5,6-dimethyltetrahydro-2H-pyran-2-yl)pyridin-3-yl)-5-fluoropicolinamide] | 1 | 2 | 276 | 4530 | 2
3 | CC[C@H]1O[C@@H](c2ccncc2NC(=O)c2ccnc(-c3c(F)cccc3F)n2)C[C@@H](O)[C@@H]1O [Example 34, 2-(2,6-difluorophenyl)-N-(4-((2R,4R,5S,6R)-6-ethyl-4,5-dihydroxytetrahydro-2H-pyran-2-yl)pyridin-3-yl)pyrimidine-4-carboxamide] | 22 | 38 | 61 | 5000 | 170
4 | Nc1cc(F)c(-c2c(F)cccc2F)nc1C(=O)Nc1cnccc1[C@H]1C[C@@H](O)[C@H](O)[C@@H](CCl)O1 [Example 35, 3-amino-N-(4-((2R,4R,5S,6S)-6-(chloromethyl)-4,5-dihydroxytetrahydro-2H-pyran-2-yl)pyridin-3-yl)-6-(2,6-difluorophenyl)-5-fluoropicolinamide] | 1 | 1 | 88 | 1000 | 1
5 | O=C(Nc1cnccc1[C@H]1C[C@@H](O)[C@H](O)[C@@H](CCl)O1)c1ccnc(-c2c(F)cccc2F)n1 [Example 37, N-(4-((2R,4R,5S,6S)-6-(chloromethyl)-4,5-dihydroxytetrahydro-2H-pyran-2-yl)pyridin-3-yl)-2-(2,6-difluorophenyl)pyrimidine-4-carboxamide] | 12 | 17 | 14 | > 10000 | 65
6 | Nc1cc(F)c(-c2ccccc2F)nc1C(=O)Nc1cnccc1[C@H]1C[C@@H](O)[C@H](O)[C@@H](CCl)O1 [Example 38, 3-amino-N-(4-((2R,4R,5S,6S)-6-(chloromethyl)-4,5-dihydroxytetrahydro-2H-pyran-2-yl)pyridin-3-yl)-5-fluoro-6-(2-fluorophenyl)picolinamide] | 1 | 2 | 15 | 6900 | 3
7 | CC[C@H]1O[C@@H](c2ccncc2NC(=O)c2nc(-c3c(F)cccc3F)sc2N)C[C@@H](O)[C@@H]1O [Example 40, 5-amino-2-(2,6-difluorophenyl)-N-(4-((2R,4R,5S,6R)-6-ethyl-4,5-dihydroxytetrahydro-2H-pyran-2-yl)pyridin-3-yl)thiazole-4-carboxamide] | 1 | 2 | 2 | 600 | 2
8 | CC[C@H]1O[C@@H](c2ccncc2NC(=O)c2csc(-c3c(F)cccc3F)n2)C[C@@H](O)[C@@H]1O [Example 41, 2-(2,6-difluorophenyl)-N-(4-((2R,4R,5S,6R)-6-ethyl-4,5-dihydroxytetrahydro-2H-pyran-2-yl)pyridin-3-yl)thiazole-4-carboxamide] | 1 | 7 | 17 | 9900 | 65
9 | CC[C@H]1O[C@@H](c2ccncc2NC(=O)c2nc(-c3ccccc3F)c(F)cc2N)C[C@@H](O)[C@@H]1O [Example 42, 3-amino-N-(4-((2R,4R,5S,6R)-6-ethyl-4,5-dihydroxytetrahydro-2H-pyran-2-yl)pyridin-3-yl)-5-fluoro-6-(2-fluorophenyl)picolinamide] | 1 | 1 | 23 | 9600 | 3
10 | CC[C@H]1O[C@@H](c2ccncc2NC(=O)c2nc(-c3c(F)cccc3F)c(F)cc2N)C[C@@H](O)[C@@H]1O [Example 43, 3-amino-6-(2,6-difluorophenyl)-N-(4-((2R,4R,5S,6R)-6-ethyl-4,5-dihydroxytetrahydro-2H-pyran-2-yl)pyridin-3-yl)-5-fluoropicolinamide] | 1 | 1 | 188 | 1700 | 1
11 | C=C[C@H]1OC(c2ccncc2NC(=O)c2ccc(F)c(-c3c(F)cccc3F)n2)=C[C@@H](O)[C@@H]1O [Example 44, 6-(2,6-difluorophenyl)-N-(4-((2R,3S,4R)-3,4-dihydroxy-2-vinyl-3,4-dihydro-2H-pyran-6-yl)pyridin-3-yl)-5-fluoropicolinamide] | 1 | 1 | 339 | 900 | 1
12 | N#CC[C@H]1O[C@@H](c2ccncc2NC(=O)c2ccc(F)c(-c3c(F)cccc3F)n2)CC[C@@H]1O [Example 46, N-(4-((2R,5S,6R)-6-(cyanomethyl)-5-hydroxytetrahydro-2H-pyran-2-yl)pyridin-3-yl)-6-(2,6-difluorophenyl)-5-fluoropicolinamide] | 7 | 33 | 442 | > 10000 | 149
13 | N#CC[C@H]1O[C@@H](c2ccncc2NC(=O)c2ccc(C#N)c(-c3c(F)cccc3F)n2)C[C@@H](O)[C@@H]1O [Example 47, 5-cyano-N-(4-((2R,4R,5S,6R)-6-(cyanomethyl)-4,5-dihydroxytetrahydro-2H-pyran-2-yl)pyridin-3-yl)-6-(2,6-difluorophenyl)picolinamide] | 58 | 113 | 9180 | > 10000 | 356
14 | O=C(Nc1cnccc1[C@H]1C[C@H](Cl)[C@H](O)[C@@H](CCl)O1)c1ccc(F)c(-c2c(F)cccc2F)n1 [Example 55, N-(4-((2R,4S,5R,6S)-4-chloro-6-(chloromethyl)-5-hydroxytetrahydro-2H-pyran-2-yl)pyridin-3-yl)-6-(2,6-difluorophenyl)-5-fluoropicolinamide] | 2 | 26 | 911 | 5500 | 101
15 | COC[C@H]1O[C@@H](c2ccncc2NC(=O)c2ccc(F)c(-c3c(F)cccc3F)n2)C[C@@H](O)[C@@H]1O [Example 57, 6-(2,6-difluorophenyl)-N-(4-((2R,4R,5S,6R)-4,5-dihydroxy-6-(methoxymethyl)tetrahydro-2H-pyran-2-yl)pyridin-3-yl)-5-fluoropicolinamide] | 19 | 28 | 2000 | 6100 | 111
16 | O=C(Nc1cnccc1[C@H]1C[C@@H](O)CC2(CC2)O1)c1ccc(F)c(-c2c(F)cccc2F)n1 [Example 59, 6-(2,6-difluorophenyl)-5-fluoro-N-(4-((5R,7R)-7-hydroxy-4-oxaspiro[2.5]octan-5-yl)pyridin-3-yl)picolinamide] | 6 | 14 | 757 | > 10000 | 162
17 | O=C(Nc1cnccc1[C@H]1C[C@@H](O)CC2(CC2)O1)c1csc(-c2c(F)cccc2F)n1 [Example 61, 2-(2,6-difluorophenyl)-N-(4-((5R,7R)-7-hydroxy-4-oxaspiro[2.5]octan-5-yl)pyridin-3-yl)thiazole-4-carboxamide] | 7 | 20 | 65 | > 10000 | 599
18 | O=C(Nc1cnccc1[C@@H]1C[C@H](O)CC2(CC2)O1)c1csc(-c2c(F)cccc2F)n1 [Example 62, 2-(2,6-difluorophenyl)-N-(4-((5S,7S)-7-hydroxy-4-oxaspiro[2.5]octan-5-yl)pyridin-3-yl)thiazole-4-carboxamide] | 2 | 15 | 27 | > 10000 | 321
19 | C[C@H]1O[C@@H](c2ccncc2NC(=O)c2ccc(F)c(-c3c(F)cccc3F)n2)[C@H](F)C(=O)[C@]1(C)O [Example 72, 6-(2,6-difluorophenyl)-5-fluoro-N-(4-((2S,3S,5R,6R)-3-fluoro-5-hydroxy-5,6-dimethyl-4-oxotetrahydro-2H-pyran-2-yl)pyridin-3-yl)picolinamide] | 1 | 6 | 385 | 1500 | 15
